In patent US9334286B2, “Pharmacologically active compounds” (Cancer Research Technology Limited, priority 2012, dated 2016) one finds IC50 data, which are given here for 22 compounds.

The structures appear in SMILES notation.

The first assay deals with full length MPS1 (Homo sapiens (Human), UniProt P33981). The experiment in a line: Measurement of inhibition of MPS1 kinase (Caliper EZ reader, fluorescent labelled peptide H236). The format is biochemical. The conditions noted are these: full length MPS1 12.5 nM or 3 nM, peptide H236 5 μM, ATP 10 μM, 60 min at room temperature.
Sequence of full length MPS1 (P33981 whole entry): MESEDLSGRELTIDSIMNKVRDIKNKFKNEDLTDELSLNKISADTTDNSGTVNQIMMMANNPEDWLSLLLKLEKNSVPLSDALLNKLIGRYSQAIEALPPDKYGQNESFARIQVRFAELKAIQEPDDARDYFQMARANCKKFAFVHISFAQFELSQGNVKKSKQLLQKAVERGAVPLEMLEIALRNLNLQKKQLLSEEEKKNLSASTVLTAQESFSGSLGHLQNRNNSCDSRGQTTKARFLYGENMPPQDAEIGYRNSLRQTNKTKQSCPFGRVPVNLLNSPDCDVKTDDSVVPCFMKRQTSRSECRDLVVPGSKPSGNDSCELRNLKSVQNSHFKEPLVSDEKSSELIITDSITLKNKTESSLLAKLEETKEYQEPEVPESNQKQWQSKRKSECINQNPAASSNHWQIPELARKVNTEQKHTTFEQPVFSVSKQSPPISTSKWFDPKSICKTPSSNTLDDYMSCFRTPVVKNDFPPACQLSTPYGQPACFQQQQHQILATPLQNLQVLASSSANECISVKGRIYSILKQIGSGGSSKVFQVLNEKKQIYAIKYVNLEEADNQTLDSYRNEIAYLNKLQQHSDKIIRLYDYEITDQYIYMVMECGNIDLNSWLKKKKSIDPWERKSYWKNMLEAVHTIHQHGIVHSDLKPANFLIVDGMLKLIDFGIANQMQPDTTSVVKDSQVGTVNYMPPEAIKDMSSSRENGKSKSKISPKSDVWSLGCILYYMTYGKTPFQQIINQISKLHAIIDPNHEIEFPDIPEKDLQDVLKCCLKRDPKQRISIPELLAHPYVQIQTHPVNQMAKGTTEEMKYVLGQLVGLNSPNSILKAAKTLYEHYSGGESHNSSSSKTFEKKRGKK
Consider `COc1cc(-c2cnc(C)n2C)ccc1Nc1cc2cc(-c3cnn(C(C)C(C)(C)O)c3)ccc2cn1` (racemic) [Example 68, 3-(4-(3-((4-(1,2-Dimelhyl-1H-imidazol-5-yl)-2-methoxyphenyl)amino)isoquinolin-6-yl)-1H-pyrazol-1-yl)-2-methylbutan-2-ol], for which the IC50 worked out at 6e-09 M.
On the same count and under the same terms, for `COc1cc(-c2cnc(C)n2C)ccc1Nc1cc2cc(-c3cccnc3)ccc2cn1` [Example 16, N-(4-(1,2-dimethyl-1H-imidazol-5-yl)-2-methoxyphenyl)-6-(pyridin-3-yl)isoquinolin-3-amine] the value was 3e-09 M; for `COc1cc(-c2cnc(C)n2C)ccc1Nc1cc2nc(-c3cnn(CC(C)(C)O)c3)ccc2cn1` [Example 102, 1-(4-(7-(4-(1,2-Dimethyl-1H-imidazol-5-yl)-2-methoxyphenylamino)-1,6-naphthyridin-2-yl)-1H-pyrazol-1-yl)-2-methylpropan-2-ol], 2e-09 M.
On to `COc1cc(-c2cnc(C)n2C)ccc1Nc1cc2cc(-c3cnn(CC4COC(C)(C)O4)c3)ccc2cn1` (racemic) [Example 40, 6-(1-((2,2-Dimethyl-1,3-dioxolan-4-yl)methyl)-1H-pyrazol-4-yl)-N-(4-(1,2-dimethyl-1H-imidazol-5-yl)-2-methoxyphenyl)isoquinolin-3-amine], for which the IC50 amounted to 6e-09 M.
As for `COC1CN(C(=O)c2ccc(Nc3cc4cc(-c5cnn(CC(C)(C)O)c5)ccc4cn3)c(OC(F)F)c2)C1` [Example 91, (3-(Difluoromethoxy)-4-(6-(1-(2-hydroxy-2-methylpropyl)-1H-pyrazol-4-yl)isoquinolin-3-ylamino)phenyl)(3-methoxyazetidin-1-yl)methanone], the IC50 was determined as 2e-09 M.
The same measure, in the same setting: to `COc1cc(-c2nncn2C)ccc1Nc1cc2nc(-c3cnn(CC(C)(C)O)c3)ccc2cn1` [Example 105, 1-(4-(7-(2-Methoxy-4-(4-methyl-4H-1,2,4-triazol-3-yl)phenylamino)-1,6-naphthyridin-2-yl)-1H-pyrazol-1-yl)-2-methylpropan-2-ol] belongs 1e-09 M.
Turning to `COCC1CN(C(=O)c2ccc(Nc3cc4cc(-c5cnn(CC(C)(C)O)c5)ccc4cn3)c(OC)c2)C1` [Example 86, (4-((6-(1-(2-Hydroxy-2-methylpropyl)-1H-pyrazol-4-yl)isoquinolin-3-yl)amino)-3-methoxy-phenyl)(3-(methoxymethyl)azetidin-1-yl)methanone], the IC50 is 7e-09 M.
`CC(C)(O)Cn1cc(-c2ccc3cnc(Nc4ccc(S(C)(=O)=O)cc4Cl)cc3c2)cn1` [Example 59, 1-(4-(3-((2-Chloro-4-(methylsulfonyl)phenyl)amino)isoquinolin-6-yl)-1H-pyrazol-1-yl)-2-methylpropan-2-ol] yielded an IC50 of 4e-09 M.
`CCOc1cc(C(=O)N2CC(OC)C2)ccc1Nc1cc2cc(-c3cnn(CC(C)(C)O)c3)ccc2cn1` [Example 92, (3-Ethoxy-4-(6-(1-(2-hydroxy-2-methylpropyl)-1H-pyrazol-4-yl)isoquinolin-3-ylamino)phenyl)(3-methoxyazetidin-1-yl)methanone] returned an IC50 of 2e-09 M.
`CCOc1cc(-c2nncn2C)ccc1Nc1cc2cc(-c3cnn(CC4(O)CCC4)c3)ccc2cn1` [Example 88, 1-((4-(3-((2-Ethoxy-4-(4-methyl-4H-1,2,4-triazol-3-yl)phenyl)amino)isoquinolin-6-yl)-1H-pyrazol-1-yl)methyl)cyclobutanol] showed an IC50 of 7e-09 M.
`COc1cc(-c2cnc(C)n2C)ccc1Nc1cc2cc(-c3cnn(CC(C)(C)O)c3)ccc2cn1` [Example 29, 1-(4-(3-((4-(1,2-Dimethyl-1H-imidazol-5-yl)-2-methoxyphenyl)amino)isoquinolin-6-yl)-1H-pyrazol-1-yl)-2-methylpropan-2-ol] showed an IC50 of 2e-09 M.
For the compound `COc1cc(-c2cnn(C)c2)ccc1Nc1cc2nc(-c3cnn(C)c3)ccc2cn1` [Example 100, N-(2-Methoxy-4-(1-methyl-1H-pyrazol-4-yl)phenyl)-2-(1-methyl-1H-pyrazol-4-yl)-1,6-naphthyridin-7-amine], it took 6e-09 M to reach half-maximal inhibition (IC50).
Consider `COc1cc(C(=O)NC2CCN(C)CC2)ccc1Nc1cc2cc(-c3cnn(CC(C)(C)O)c3)ccc2cn1` [Example 67, 4-((6-(1-(2-Hydroxy-2-methylpropyl)-1H-pyrazol-4-yl)isoquinolin-3-yl)amino)-3-methoxy-N-(1-methylpiperidin-4-yl)benzamide], for which the IC50 came out at 5e-09 M. This IC50 and that of the compound before are within 1.5-fold of each other.
On the same count and under the same terms, to `CCOc1cc(-c2nncn2C)ccc1Nc1cc2cc(-c3cnn(CC(C)(C)O)c3)ccc2cn1` [Example 48, 1-(4-(3-(2-Ethoxy-4-(4-methyl-4H-1,2,4-triazol-3-yl)phenylamino)isoquinolin-6-yl)-1H-pyrazol-1-yl)-2-methylpropan-2-ol] belongs 2e-09 M; to `COc1cc(C(=O)N2CC(OC)C2)ccc1Nc1cc2cc(-c3cnn(C4COCC4O)c3)ccc2cn1` (racemic) [Example 82, (4-((6-(1-(4-Hydroxytetrahydrofuran-3-yl)-1H-pyrazol-4-yl)isoquinolin-3-yl)amino)-3-methoxyphenyl)(3-methoxyazetidin-1-yl)methanone], 5e-09 M.
For the compound `COc1cc(-c2ncnn2C)ccc1Nc1cc2cc(-c3cnn(CC(C)(C)O)c3)ccc2cn1` [Example 64, 1-(4-(3-((2-Methoxy-4-(1-methyl-1H-1,2,4-triazol-5-yl)phenyl)amino)isoquinolin-6-yl)-1H-pyrazol-1-yl)-2-methylpropan-2-ol], the midpoint of inhibition, the IC50, lay at 1e-09 M.
As to `COc1cc(-c2cnc(C)n2C)ccc1Nc1cc2cc(-c3cnn(C4COC4)c3)ccc2cn1` [Example 33, N-(4-(1,2-Dimethyl-1H-imidazol-5-yl)-2-methoxyphenyl)-6-(1-(oxetan-3-yl)-1H-pyrazol-4-yl)isoquinolin-3-amine], the 50% inhibitory concentration (IC50) stood at 3e-09 M.
For `COCCn1cc(-c2ccc3cnc(Nc4ccc(C(=O)N5CC(OC)C5)cc4OC)cc3c2)cn1` [Example 72, (3-Methoxy-4-((6-(1-(2-methoxyethyl)-1H-pyrazol-4-yl)isoquinolin-3-yl)amino)phenyl)(3-methoxyazetidin-1-yl)methanone], the IC50 turned out to be 3e-09 M.
Turning to `COc1cc(C(=O)N2CCC(C#N)CC2)ccc1Nc1cc2cc(-c3cnn(CC(C)(C)O)c3)ccc2cn1` [Example 94, 1-(4-(6-(1-(2-Hydroxy-2-methylpropyl)-1H-pyrazol-4-yl)isoquinolin-3-ylamino)-3-methoxybenzoyl)piperidine-4-carbonitrile], inhibition was half-maximal at 2e-09 M (IC50). Compared with the last compound, the IC50 is about 1.5-fold lower.
The compound `COc1cc(-c2cnc3n2CCNC3)ccc1Nc1cc2cc(-c3cnn(CC(C)(C)O)c3)ccc2cn1` [Example 111, 1-(4-(3-((2-Methoxy-4-(5,6,7,8-tetrahydroimidazo[1,2-a]pyrazin-3-yl)phenyl)amino)-isoquinolin-6-yl)-1H-pyrazol-1-yl)-2-methylpropan-2-ol] displayed an IC50 of 3e-09 M.
On the same count and under the same terms, for `COc1cc(-c2cnc(C)n2C)ccc1Nc1cc2cc(-c3cnn(C4CCNCC4)c3)ccc2cn1` [Example 113, N-(4-(1,2-dimethyl-1H-imidazol-5-yl)-2-methoxyphenyl)-6-(1-(piperidin-4-yl)-1H-pyrazol-4-yl)isoquinolin-3-amine] the value was 4e-09 M.

The same assay, now with this note: unit printed as (M); full length MPS1 12.5 nM or 3 nM, peptide H236 5 μM, ATP 10 μM, 60 min at room temperature.
Consider `COc1cc(-c2cnc(C)n2C)ccc1Nc1ncc2ccc(-c3cnn(C)c3)nc2n1` [Example 115, N-(4-(1,2-dimethyl-1H-imidazol-5-yl)-2-methoxyphenyl)-7-(1-methyl-1H-pyrazol-4-yl)pyrido[2,3-d]pyrimidin-2-amine], for which the midpoint of inhibition, the IC50, lay at 1.6e-08 M.
